# Measured values from PubChem BioAssay (NCI).
# Several values for one entry are separate records, joined by “and”; a condition that tells them apart may be missing. Identical values can stand only once.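 How tested: cells in 96-well plates exposed to compound for 48 hours at five concentrations. GI50 = concentration required for 50% inhibition of growth. TGI is the concentration that stops growth completely.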
# Columns and labels:
# Assay in all cases: NCI tumour cell line growth inhibition, 48 h
# SNB-78 CNS = system: SNB-78 CNS
# M19-MEL melanoma = system: M19-MEL melanoma
# KM20L2 colon = system: KM20L2 colon
# DMS 273 small cell lung = system: DMS 273 small cell lung
# MDA-MB-231 breast = system: MDA-MB-231 breast
# NCI/ADR-RES ovarian = system: NCI/ADR-RES ovarian
# DU-145 prostate = system: DU-145 prostate
# HS 578T breast = system: HS 578T breast
# T-47D breast = system: T-47D breast
# BT-549 breast = system: BT-549 breast
Structure (SMILES),TGI (SNB-78 CNS),TGI (M19-MEL melanoma),TGI (KM20L2 colon),TGI (DMS 273 small cell lung),further results
OC1(c2ccccc2)OC(C#Cc2ccccc2)(c2ccccc2)c2ccccc21 (configuration not stated),23.2 µM,11.1 µM,13.6 µM,12.1 µM,
O=C(c1ccncc1)n1nc(-c2ccccc2)c(N=Nc2ccccc2[N+](=O)[O-])c1-c1ccccc1,> 100 µM,> 100 µM,,> 100 µM,
COC1OC(CO)C(O)C1N (configuration not stated),> 100 µM,,> 100 µM,,
CC1=C(C(=O)Nc2cccc(Cl)c2)C(c2ccccc2F)C(C(=O)Nc2cccc(Cl)c2)=C(C)N1,60.9 µM,26.4 µM,24.3 µM,26.4 µM,
CN(C)CC1CCC/C1=N\O (configuration not stated),> 100 µM,> 100 µM,> 100 µM,> 100 µM,
C/C(CCc1ccccc1)=N\NC(N)=S,> 100 µM,> 100 µM,> 100 µM,> 100 µM,
Cc1ccccc1C1=C(C(=O)Nc2ccc(Cl)c(Cl)c2)NC(=S)NC1N (configuration not stated),> 100 µM,> 100 µM,> 100 µM,> 100 µM,
C[C@]12CCCC(=O)C1(O)C[C@H](C(=O)O)CC2 (some centres not stated),,> 100 µM,> 100 µM,> 100 µM,
COC(=O)c1ccccc1NC(=O)C(=O)NNC(=O)c1ccncc1,,> 100 µM,> 100 µM,> 100 µM,
CC[C@]1(O)C(=O)OCc2c1cc1n(c2=O)Cc2cc3c(N)cccc3nc2-1,,> 100 µM,> 100 µM,> 100 µM,
N#CCCN(CCC#N)c1ccc(C(Sc2ccccc2)C(NC(=O)c2cc([N+](=O)[O-])ccc2Cl)C(=O)Sc2ccccc2)cc1 (configuration not stated),34.5 µM,11.9 µM,6.47 µM and 11.3 µM,5.15 µM,GI50 (SNB-78 CNS): 2970 nM; GI50 (M19-MEL melanoma): 2950 nM
NC(=S)NNc1c([N+](=O)[O-])cnn(-c2ccccc2)c1=O,48.3 µM,26.5 µM,29.8 µM,33.8 µM,
CCOC(=O)/C=C1\CCCC12OCCO2,> 100 µM,> 100 µM,> 100 µM,> 100 µM,
COC(=O)[C@]12CCC(C)[C@H](C)[C@H]1C1=CCC3[C@@]4(C)CC[C@H](OC(C)=O)C(C)(C)C4CC[C@@]3(C)C1(C)C(O)C2 (some centres not stated),> 100 µM,> 100 µM,> 100 µM,> 100 µM,
O=C(N/N=C(/CCN1CCCC1)CC(c1ccccc1)c1c(O)c2ccccc2oc1=O)c1ccncc1 (configuration not stated),> 100 µM,> 100 µM,> 100 µM,,
CN(C)/N=C(/c1nc2ccc(Cl)cc2[nH]c1=O)C(O)c1ccc(C(O)/C(=N\N(C)C)c2nc3ccc(Cl)cc3[nH]c2=O)cc1 (configuration not stated),,> 100 µM,> 100 µM,,
C/C=C/C=C/C=C/C=C/C(=O)O,> 100 µM,,> 100 µM,> 100 µM,
N.N.N.N.O=C([O-])C(Cl)Cl.O=C([O-])C(Cl)Cl.[Co+3].[O-][Cl+3]([O-])([O-])[O-],> 100 µM,,> 100 µM,> 100 µM,GI50 (SNB-78 CNS): > 100000 nM; GI50 (KM20L2 colon): > 100 µM; GI50 (DMS 273 small cell lung): > 100 µM
O=[N+]([O-])c1cnn(C2=CNc3ccccc3N=C2)c1,> 100 µM,> 100 µM,> 100 µM,> 100 µM,
CS(=O)(=O)CSCSSCS(C)(=O)=O,> 100 µM,> 100 µM,> 100 µM,> 81.3 µM,
COc1ccc(N2C(=O)[C@H]3CC(C)c4c([nH]c5ccccc45)[C@H]3C2=O)cc1 (some centres not stated),> 59.5 µM,55.5 µM,12.7 µM,17.2 µM,TGI (MDA-MB-231 breast): > 54.8 µM; TGI (NCI/ADR-RES ovarian): 12.4 µM; TGI (DU-145 prostate): > 45.8 µM; TGI (HS 578T breast): 33.4 µM; TGI (T-47D breast): 68.8 µM; TGI (BT-549 breast): > 80.7 µM
CCCCN(CCCC)c1c([N+](=O)[O-])c(=O)nc2ccccn12,> 100 µM,> 100 µM,> 100 µM,,
